Data from patent US6703042B1, “Salts of L-carnitine and lower alkanoyl L-carnitine” (Sigma-Tau Industries Farmaceutiche Riunite S.p.A., priority 1999, dated 2004).
Where a name gives a salt, the structure may show the parent alone.

How the values were obtained:
[1] = Hygroscopicity: increase in weight and appearance after exposure to humidity; type: physicochemical; conditions: exposure to 70±5% relative humidity, at 25° C. for 24 hours
[2] = Hygroscopicity of the solid as stated in the preparation examples; type: physicochemical
[3] = background statement; cited from earlier work

Molecule	Appearance [1]	Increase in weight (%) [1]	Hygroscopicity of the solid [2]	Hygroscopicity (known salts, prior art) [3]
CC(=O)O[C@H](CC(=O)O)C[N+](C)(C)C.[Cl-] [Acetyl-L-carnitine chloride, reference compound]	clumped mass	8%		
CC(=O)O[C@H](CC(=O)[O-])C[N+](C)(C)C [Acetyl-L-carnitine inner salt, reference compound]	deliquescent	19%	Very Hygroscopic	
C[N+](C)(C)C[C@H](O)CC(=O)O.C[N+](C)(C)C[C@H](O)CC(=O)O.O=C([O-])C(O)C(O)C(=O)[O-] [L(−)-carnitine tartrate]				non-hygroscopic
C[N+](C)(C)C[C@H](O)CC(=O)[O-] [L-carnitine inner salt, reference compound]	deliquescent	23%		
Cl.N[C@@H](CS)C(=O)O [L-cysteine Hydrochloride]			Very Hygroscopic	
CCC(=O)O[C@H](CC(=O)O)C[N+](C)(C)C.[Cl-] [Propionyl-L-carnitine chloride, reference compound]	deliquescent	15%		
CC(=O)O[C@H](CC(=O)O)C[N+](C)(C)C.O=C([O-])/C=C/C(=O)O [acetyl L(−)-carnitine acid fumarate]				strongly hygroscopic
Acetyl L-carnitine L-arginate Hydrochloride [Example 5]	no variation	0.45%	non-hygroscopic	
Acetyl L-carnitine L-asparaginate Hydrochloride [Example 9]	no variation	0.3%	non-hygroscopic	
Acetyl L-carnitine L-aspartate Hydrochloride [Example 8]	no variation	0.7%	non-hygroscopic	
Acetyl L-carnitine L-cysteinate Hydrochloride [Example 4]	no variation	0.6%	non-hygroscopic	
Acetyl L-carnitine L-glutamate Hydrochloride [Example 6]	no variation	0.4%	non-hygroscopic	
Acetyl L-carnitine L-glutaminate Hydrochloride [Example 7]	no variation	0.6%	non-hygroscopic	
Acetyl L-carnitine L-isoleucinate hydrochloride [Example 1]	no variation	0.2%	non-hygroscopic	
L(−)-carnitine acid fumarate				non-hygroscopic
